In patent US12257237B2 (priority 2017, dated 2025):
Where “and” joins values, the source holds several entries; their conditions need not be identical. Equal values may be shown once.

Legend:
[1] = Drug tolerability (body weight) in DD013 dedifferentiated liposarcoma xenograft model; assay type: in vivo, Athymic nude mice; conditions: for BWL % / Mouse body weight, Mean: Doxo (8 mg/kg)
Procedure: (§1) Experiments were performed with female Athymic nude mice, 9-10 weeks old obtained from Harlan Laboratories (Udine, Italy). They were maintained under Specific Pathogen Free conditions with constant temperature and humidity, according to the institutional guidelines.
(§2) Tumour growth mice was monitored two/three times a week (depending on tumour growth rate, to avoid unnecessary stress to the animals) by Vernier caliper. Mice were sacrificed when tumour reached a mean weight of 2±0.5 gr. The antitumour activity will be expressed as T/C %, where T and C were the mean tumour weight of treated and control groups, respectively. Mice were monitored daily and weighted at least two times a week. Tolerability was evaluated on the basis of body weight loss (BWL) and clinical observation.

[2] = tested on: DD013 dedifferentiated liposarcoma; assay: Antitumour activity in DD013 dedifferentiated liposarcoma xenograft model; assay type: in vivo, Athymic nude mice; conditions: for DD0113 tumour weight, Mean / DD0113 tumour weight, individual mouse: Doxorubicin 8 mg/kg q7dx2
Procedure: as §1, §2
Statistical analysis was performed with GraphPad Prism version 6.01 software (GraphPad software, Inc., La Jolla, CA, USA). ANOVA test was performed to evaluate if there were statistically significant differences between treated and control groups.
Briefly, xenografts were obtained by transplanting 3-4 mm tumour fragments s.c. in the flanks of mice. The growing tumour masses were measured with the aid of a Vernier caliper, and the tumour weights (TW, 1 mm^3=1 mg) were calculated by the formula: length×(width) 2/2. When tumour load achieved about 200-400 mg, mice were randomized into the experimental groups.

In the case of `COc1cccc2c1C(=O)c1c(O)c3c(c(O)c1C2=O)C[C@@](O)(C(=O)CO)C[C@@H]3O[C@H]1C[C@H](N)[C@H](O)[C@H](C)O1` [Doxo], the BWL % ([1]; day 23 from inoculum) is reported as 0.0%, the “Mouse body weight, Mean” value ([1]; day 23 from inoculum) is reported as 23.7 g and the BWL % ([1]; day 26 from inoculum) is reported as −2.6%. The “Mouse body weight, Mean” value ([1]; day 26 from inoculum) was 23.0 g, the BWL % ([1]; day 29 from inoculum) was −0.3% and the “Mouse body weight, Mean” value ([1]; day 29 from inoculum) was 23.6 g. The BWL % ([1]; day 33 from inoculum) was −5.2%, the “Mouse body weight, Mean” value ([1]; day 33 from inoculum) was 22.4 g and the BWL % ([1]; day 36 from inoculum) was −1.7%. The “Mouse body weight, Mean” value ([1]; day 36 from inoculum) was 23.3 g, the BWL % ([1]; day 40 from inoculum) was 0.7% and the “Mouse body weight, Mean” value ([1]; day 40 from inoculum) was 23.8 g. The BWL % ([1]; day 43 from inoculum) was 4.0%, the “Mouse body weight, Mean” value ([1]; day 43 from inoculum) was 24.6 g and the BWL % ([1]; day 47 from inoculum) was 8.4%. For the same compound, the “Mouse body weight, Mean” value ([1]; day 47 from inoculum) was 25.7 g, the BWL % ([1]; day 50 from inoculum) was 5.1% and the “Mouse body weight, Mean” value ([1]; day 50 from inoculum) was 24.9 g. For the same compound, the BWL % ([1]; day 54 from inoculum) was 5.5%, the “Mouse body weight, Mean” value ([1]; day 54 from inoculum) was 25.0 g and the BWL % ([1]; day 58 from inoculum) was 5.8%. For the same compound, the “Mouse body weight, Mean” value ([1]; day 58 from inoculum) was 25.0 g, the BWL % ([1]; day 62 from inoculum) was 8.9% and the “Mouse body weight, Mean” value ([1]; day 62 from inoculum) was 25.8 g. The BWL % ([1]; day 65 from inoculum) was 7.4%, the “Mouse body weight, Mean” value ([1]; day 65 from inoculum) was 25.4 g and the “Mouse body weight, Mean” value ([1]; day 69 from inoculum) was 26.6 g. The BWL % ([1]; day 72 from inoculum) was 10.0%, the “Mouse body weight, Mean” value ([1]; day 72 from inoculum) was 26.0 g and the BWL % ([1]; day 75 from inoculum) was 10.3%. For the same compound, the “Mouse body weight, Mean” value ([1]; day 75 from inoculum) was 26.1 g.
In the case of `COc1cccc2c1C(=O)c1c(O)c3c(c(O)c1C2=O)C[C@@](O)(C(=O)CO)C[C@@H]3O[C@H]1C[C@H](N)[C@H](O)[C@H](C)O1` [Doxorubicin, reference compound], the “optimal T/C” value ([2]; 8 mg/kg i.v. q7dx2) is reported as 34.1%, the “effect on tumour growth” value ([2]; 8 mg/kg q7dx2) is reported as “No arrest of tumour growth was observed” and the “DD0113 tumour weight, Mean” value ([2]; day 23 from inoculum) is reported as 199.3 mg. For the same compound, the “DD0113 tumour weight, individual mouse” value ([2]; day 23 from inoculum) was 302.2 mg and 277.0 mg and 253.6 mg and 228.6 mg and 196.0 mg and 178.0 mg and 147.0 mg and 114.2 mg and 97.6 mg, the “DD0113 tumour weight, Mean” value ([2]; day 26 from inoculum) was 295.8 mg and the “DD0113 tumour weight, individual mouse” value ([2]; day 26 from inoculum) was 464.9 mg and 410.3 mg and 365.9 mg and 384.0 mg and 308.8 mg and 283.4 mg and 232.9 mg and 87.4 mg. The “DD0113 tumour weight, Mean” value ([2]; day 29 from inoculum) was 336.6 mg, the “DD0113 tumour weight, individual mouse” value ([2]; day 29 from inoculum) was 492.1 mg and 380.4 mg and 478.9 mg and 477.1 mg and 398.0 mg and 313.2 mg and 252.9 mg and 147.9 mg and 89.3 mg and the “DD0113 tumour weight, Mean” value ([2]; day 33 from inoculum) was 409.1 mg. For the same compound, the “DD0113 tumour weight, individual mouse” value ([2]; day 33 from inoculum) was 566.5 mg and 526.0 mg and 691.7 mg and 549.0 mg and 444.0 mg and 344.6 mg and 295.0 mg and 150.3 mg, the “DD0113 tumour weight, Mean” value ([2]; day 36 from inoculum) was 425.8 mg and the “DD0113 tumour weight, individual mouse” value ([2]; day 36 from inoculum) was 549.6 mg and 572.5 mg and 610.4 mg and 519.4 mg and 503.4 mg and 361.9 mg and 345.6 mg and 240.6 mg. The “DD0113 tumour weight, Mean” value ([2]; day 40 from inoculum) was 499.7 mg, the “DD0113 tumour weight, individual mouse” value ([2]; day 40 from inoculum) was 578.4 mg and 652.6 mg and 762.1 mg and 750.9 mg and 531.1 mg and 424.1 mg and 401.6 mg and 244.9 mg and 151.8 mg and the “DD0113 tumour weight, Mean” value ([2]; day 43 from inoculum) was 543.1 mg. For the same compound, the “DD0113 tumour weight, individual mouse” value ([2]; day 43 from inoculum) was 529.7 mg and 810.5 mg and 868.0 mg and 780.2 mg and 575.9 mg and 420.0 mg and 428.4 mg and 263.0 mg and 212.3 mg, the “DD0113 tumour weight, Mean” value ([2]; day 47 from inoculum) was 666.3 mg and the “DD0113 tumour weight, individual mouse” value ([2]; day 47 from inoculum) was 623.2 mg and 800.6 mg and 669.1 mg and 636.6 mg and 529.5 mg and 430.2 mg and 224.5 mg. The “DD0113 tumour weight, Mean” value ([2]; day 50 from inoculum) was 716.0 mg, the “DD0113 tumour weight, individual mouse” value ([2]; day 50 from inoculum) was 561.6 mg and 1194.0 mg and 680.6 mg and the “DD0113 tumour weight, Mean” value ([2]; day 54 from inoculum) was 810.3 mg. For the same compound, the “DD0113 tumour weight, individual mouse” value ([2]; day 54 from inoculum) was 776.7 mg and 1306.3 mg and 1175.7 mg and 807.3 mg, the “DD0113 tumour weight, Mean” value ([2]; day 58 from inoculum) was 958.1 mg and the “DD0113 tumour weight, individual mouse” value ([2]; day 58 from inoculum) was 819.5 mg and 1324.9 mg and 1508.4 mg and 1392.3 mg. The “DD0113 tumour weight, Mean” value ([2]; day 62 from inoculum) was 1128.5 mg, the “DD0113 tumour weight, individual mouse” value ([2]; day 62 from inoculum) was 955.7 mg and 1686.9 mg and 1777.9 mg and 1604.2 mg and the “DD0113 tumour weight, Mean” value ([2]; day 65 from inoculum) was 1312.4 mg. For the same compound, the “DD0113 tumour weight, individual mouse” value ([2]; day 65 from inoculum) was 960.1 mg and 1836.1 mg and 2144.7 mg and 1949.8 mg and 1415.2 mg, the “DD0113 tumour weight, Mean” value ([2]; day 69 from inoculum) was 1491.3 mg and the “DD0113 tumour weight, individual mouse” value ([2]; day 69 from inoculum) was 1238.0 mg and 2045.0 mg and 2383.0 mg and 2019.6 mg and 1526.2 mg. For the same compound, the “DD0113 tumour weight, Mean” value ([2]; day 72 from inoculum) was 1712.4 mg, the “DD0113 tumour weight, individual mouse” value ([2]; day 72 from inoculum) was 1440.5 mg and 2810.6 mg and 2245.9 mg and 1770.1 mg and the “DD0113 tumour weight, Mean” value ([2]; day 75 from inoculum) was 1970.8 mg. For the same compound, the “DD0113 tumour weight, individual mouse” value ([2]; day 75 from inoculum) was 1747.2 mg and 3155.1 mg and 2700.8 mg and 2034.9 mg and the “maximum BWL” value ([1]; 8 mg/kg, day 33) was 5.2%.
